# Experimental data taken from patent EP0015615A1, “Phenyl piperazine derivatives, their preparation and antiagressive medicines containing them” (DUPHAR INTERNATIONAL RESEARCH B.V, priority 1979, dated 1980).
# Test system: fighting behaviour of isolated mice
# Assay: test on antiagressive activity in isolated mice
# Type: in vivo
# Details: Mus musculus, po, 1 h; male albino mice kept isolated for 4 weeks; administered orally; fighting behaviour evaluated sixty minutes after administration; 5 mice per dose
# Experimental: The ED50-values mentioned in the table were determined in a test on antiagressive activity in isolated mice (Advances in Pharmacol. 5, (1967), 79). In this test, male albino mice were kept isolated for a period of 4 weeks and then selected for the test on the basis of fighting behaviour present. The selection criterion is the occurrence of 3 or more fighting periods within 3 minutes after a mouse which has not been kept isolated has been placed in the cage of the mouse kept isolated. The compounds to be investigated were administered orally to the selected mice. Per dose 5 mice were used. Sixty minutes after the administration of the compound to be investigated the animals were evaluated again for fighting behaviour. […] The ED50-value in mg of active substance per kg of body weight was calculated from the results obtained.
row,SMILES,ED50 [mg/kg]
1,"Cl.O=CNCCN1CCN(c2cccc(C(F)(F)F)c2)CC1 [R4=H, R5=H, R6=3-CF3, T=O, m=0, p=2, 1-[2-(N-formylamino)ethyl] -4-(3-trifluoromethylphenyl)piperazine hydrochloride]",1.7
2,"CC(=O)NCCN1CCN(c2cccc(Br)c2)CC1 [R4=CH3, R5=H, R6=3-Br, T=O, m=0, p=2, 1-[2-(N-acetylamino)ethyl]-4-(3-bromophenyl)piperazine]",2.6
3,"CCN(CCN1CCN(c2cccc(C(F)(F)F)c2)CC1)C(C)=O [R4=CH3, R5=C2H5, R6=3-CF3, T=O, m=0, p=2, 1-[2-(N-acetyl-N-ethylamino)ethyl]-4-(3-trifluoromethylphenyl) piperazine]",3.2
4,"NC(=O)NCCN1CCN(c2cccc(Cl)c2)CC1 [R4=NH2, R5=H, R6=3-Cl, T=O, m=0, p=2, 1-[2-(N-aminocarbonylamino)ethyl]-4-(3-chlorophenyl)piperazine]",2.3
5,"CC(=O)NCCN1CCN(c2ccccc2)CC1 [US pat. spec. 2.722.529 ex.12, reference compound]",15
6,"CC(=O)NCCN1CCN(c2ccccc2Cl)CC1 [US pat. spec. 2.833.770, reference compound]",18
7,"NC(=O)NCCN1CCN(c2cccc(C(F)(F)F)c2)CC1 [R4=NH2, R5=H, R6=3-CF3, T=O, m=0, p=2, 1-[2-(N-aminocarbonylamino)ethyl]-4-(3-trifluoromethylphenyl) piperazine]",1.3
8,"CC(=O)NCCN1CCN(c2cccc(Cl)c2)CC1 [R4=CH3, R5=H, R6=3-Cl, T=O, m=0, p=2, 1-[2-(N-acetylamino)ethyl]-4-(3-chlorophenyl)piperazine]",1.8
9,"CC(=O)N(C)CCN1CCN(c2cccc(C(F)(F)F)c2)CC1.Cl [R4=CH3, R5=CH3, R6=3-CF3, T=O, m=0, p=2, 1-[2-(N-acetyl-N-methylamino)ethyl]-4-(3-trifluoromethylphenyl) piperazine hydrochloride (1:1)]",0.9
10,NC(=O)NC(=O)NCCN1CCN(c2cccc(C(F)(F)F)c2)CC1 [1 [-2-(N-allophanoylamino)ethyl]-4-(3-trifluoromethylphenyl)piperazine],1.5
11,"CC(=O)NCCN1CCN(c2cccc(C(F)(F)F)c2)CC1 [R4=CH3, R5=H, R6=3-CF3, T=O, m=0, p=2, 1-[2-(N-acetylamino)ethyl]-4-(3-trifluoromethylphenyl)piperazine]",0.7
12,"CC(=S)NCCN1CCN(c2cccc(C(F)(F)F)c2)CC1.Cl [R4=CH3, R5=H, R6=3-CF3, T=S, m=0, p=2, 1-[2-(N-thioacetylamino)ethyl]-4-(3-trifluoromethylphenyl)piperazine hydrochloride]",1.6
13,"COC(=O)NCCN1CCN(c2cccc(C(F)(F)F)c2)CC1.Cl [R4=CH3O, R5=H, R6=3-CF3, T=O, m=0, p=2, 1-[2-(N-methoxycarbonylamino)ethyl]-4-(3-trifluoromethylphenyl) piperazine hydrochloride]",0.6
14,"O=CNCCN1CCN(c2cccc(Cl)c2)CC1 [R4=H, R5=H, R6=3-Cl, T=O, m=0, p=2, 1-[2-(N-formylamino)ethyl]-4-(3-chlorophenyl)piperazine]",1.5
15,"NC(=O)NC(=O)NCCN1CCN(c2cccc(Cl)c2)CC1 [R4=NH2CONH, R5=H, R6=3-Cl, T=O, m=0, p=2]",2.3
16,"NC(=O)NCC[N+]1([O-])CCN(c2cccc(C(F)(F)F)c2)CC1 [R4=NH2, R5=H, R6=3-CF3, T=O, m=1, p=2, 1-[2-(N-aminocarbonylamino)ethyl]-4-(3-trifluoromethylphenyl) piperazine 1-oxide]",1.9
17,"CC(=O)NCC[N+]1([O-])CCN(c2cccc(C(F)(F)F)c2)CC1 [R4=CH3, R5=H, R6=3-CF3, T=O, m=1, p=2, 1-[2-(N-acetylamino)ethyl]-4-(3-trifluoromethylphenyl)piperazine 1-oxide]",1.5
18,"COC(=O)NCCN1CCN(c2cccc(Cl)c2)CC1.Cl.Cl [R4=CH3O, R5=H, R6=3-Cl, T=O, m=0, p=2, 1-[2-(N-methoxycarbonylamino)ethyl]-4-(3-chlorophenyl)piperazine dihydrochloride]",3.5
